# Laboratory results as given in PubChem BioAssay AID1224921 (Broad Institute, 2016).
# Activity calls are given as the source filed them. How the calls were made is not given here.
# Test system: Clostridioides difficile clinical isolate growth, OD600, 24 h
# Test: inhibitors of Clostridioides difficile proliferation – 4-point retest, confirmation (AID 1224921)
row,Structure (SMILES),AC50
1,CNC(=O)C[C@H]1CC[C@H]2[C@@H](COC[C@@H](O)CN2C(=O)Nc2ccc(Cl)c(Cl)c2)O1,2.75 µM
2,O=C(C[C@@H]1CC[C@@H]2[C@H](COC[C@@H](O)CN2C(=O)Nc2ccc(C(F)(F)F)cc2)O1)NCC1CCCCC1,2.03 µM
3,C[C@H](CO)N1C[C@H](C)[C@H](CN(C)C(=O)Nc2ccccc2)Oc2c(NC(=O)Nc3ccc(C(F)(F)F)cc3)cccc2C1=O,26.5 µM
4,CCCNC(=O)C[C@H]1CC[C@@H]2[C@H](COC[C@@H](O)CN2C(=O)Nc2ccc(Cl)c(Cl)c2)O1,2.91 µM
5,CCCN(C)C[C@H]1OCCCC[C@@H](C)Oc2ccc(NC(=O)Nc3ccc(C(F)(F)F)cc3)cc2C(=O)N([C@@H](C)CO)C[C@H]1C,10.5 µM
6,C[C@H]1CN([C@@H](C)CO)C(=O)c2cccc(NC(=O)Nc3ccc(C(F)(F)F)cc3)c2O[C@H]1CN(C)C(=O)Nc1ccc(F)cc1,23.4 µM
7,C[C@@H]1CN([C@H](C)CO)C(=O)c2cccc(NC(=O)Nc3ccc(C(F)(F)F)cc3)c2O[C@@H]1CN(C)Cc1ccc(Oc2ccccc2)cc1,18.8 µM
8,C[C@@H]1CN([C@@H](C)CO)C(=O)c2cccc(NC(=O)Nc3ccc(C(F)(F)F)cc3)c2O[C@@H]1CN(C)C(=O)Nc1ccc(F)cc1,30 µM
9,O=C(C[C@@H]1CC[C@H]2[C@@H](COC[C@@H](O)CN2C(=O)Nc2ccc(Cl)c(Cl)c2)O1)NCc1ccc(Cl)cc1,1.04 µM
10,CCC(=O)N[C@@H]1CC[C@@H](CCNC(=O)Nc2ccc(C(F)(F)F)cc2)O[C@@H]1CO,3.9 µM
11,C[C@@H]1CCCCO[C@@H](CN(C)CC2CC2)[C@H](C)CN([C@@H](C)CO)C(=O)c2cc(NC(=O)Nc3ccc(C(F)(F)F)cc3)ccc2O1,17.6 µM
12,CCNC(=O)C[C@@H]1CC[C@@H]2[C@H](COC[C@H](O)CN2C(=O)Nc2ccc(C(F)(F)F)cc2)O1,11.8 µM
13,N#C[C@H]1[C@H](c2ccc(C#Cc3ccc(F)cc3)cc2)[C@@H](CO)N1C(=O)C1CCCC1,> 70 µM (inactive)
14,C[C@H]1CN([C@@H](C)CO)C(=O)c2cccc(NC(=O)Nc3ccccc3)c2O[C@H]1CN(C)C(=O)Nc1ccc(C(F)(F)F)cc1,28.2 µM
15,COc1ccc(NC(=O)Nc2cccc3c2O[C@H](CN(C)Cc2ccc(C(F)(F)F)cc2)[C@H](C)CN([C@@H](C)CO)C3=O)cc1,15.9 µM
16,O=C(C[C@@H]1CC[C@H]2[C@@H](COC[C@@H](O)CN2C(=O)Nc2ccc(C(F)(F)F)cc2)O1)NCCc1ccncc1,4.89 µM
17,O=C(C[C@@H]1CC[C@@H]2[C@H](COC[C@H](O)CN2C(=O)Nc2ccc(Cl)c(Cl)c2)O1)NCc1ccccc1,2.01 µM
18,CO[C@@H]1CN(C)C(=O)c2cc(NC(=O)Nc3ccc(Cl)c(Cl)c3)ccc2OC[C@H](C)NC[C@H]1C,6.72 µM
19,CN(C)CC(=O)N[C@@H]1CC[C@@H](CCNC(=O)Nc2ccc(C(F)(F)F)cc2)O[C@@H]1CO,4.58 µM
20,CO[C@H](CN(C)Cc1cc(F)ccc1F)[C@@H](C)CN(C(=O)Nc1ccc(C(F)(F)F)cc1)[C@H](C)CO,6.43 µM
21,COc1ccc(-c2ccc([C@H]3[C@@H](C#N)N(C(=O)C4CCC4)[C@H]3CO)cc2)cc1,> 70 µM (inactive)
22,CO[C@H](CN(C)C(=O)C1CCOCC1)[C@H](C)CN(C(=O)Nc1ccc(C(F)(F)F)cc1)[C@H](C)CO,5.96 µM
23,N#C[C@H]1[C@@H](c2ccc(C#CC3CCCC3)cc2)[C@H](CO)N1C(=O)Nc1ccc(F)cc1,> 60 µM (inactive)
24,O=C(C[C@@H]1CC[C@H]2[C@@H](COC[C@@H](O)CN2CC2CCCCC2)O1)NCc1ccc(Cl)cc1,> 60 µM (inactive)

row,Structure (SMILES),AC50
1,CO[C@H](CN(C)Cc1cc(F)ccc1F)[C@H](C)CN(C(=O)Nc1ccc(C(F)(F)F)cc1)[C@@H](C)CO,7.48 µM
2,COc1ccccc1CNC(=O)C[C@H]1CC[C@H]2[C@@H](COC[C@@H](O)CN2C(=O)Nc2ccc(C(F)(F)F)cc2)O1,2.4 µM
3,COc1ccccc1S(=O)(=O)N[C@@H]1C=C[C@@H](CC(=O)N2CCCCC2)O[C@H]1CO,> 60 µM (inactive)
4,C[C@@H]1CCCCO[C@@H](CN(C)CC2CCCCC2)[C@H](C)CN([C@@H](C)CO)C(=O)c2cc(NC(=O)Nc3ccc(C(F)(F)F)cc3)ccc2O1,12.6 µM
5,COCC(=O)N1C[C@H](C)[C@H](OC)CN(C)C(=O)c2ccc(NC(=O)NC(C)C)cc2OC[C@H]1C,> 60 µM (inactive)
6,O=C(C[C@@H]1CC[C@@H]2[C@H](COC[C@H](O)CN2C(=O)Nc2ccc(Cl)c(Cl)c2)O1)NCc1ccc(F)cc1,0.968 µM
7,O=C(C[C@@H]1CC[C@H]2[C@@H](COC[C@@H](O)CN2C(=O)Nc2ccc(Cl)c(Cl)c2)O1)NC1CCC1,3.86 µM
8,C[C@H]1CN([C@@H](C)CO)C(=O)c2cc(C#CCc3ccccc3)cnc2O[C@@H]1CN(C)CC1CCCC1,29.7 µM
9,CO[C@H]1CN(C)C(=O)c2ccc(NC(=O)Nc3cc(Cl)cc(Cl)c3)cc2OC[C@@H](C)NC[C@@H]1C,15.9 µM
10,CNC[C@@H]1OCCCC[C@H](C)Oc2ccc(NC(=O)Nc3ccc(C(F)(F)F)cc3)cc2C(=O)N([C@H](C)CO)C[C@@H]1C,19.2 µM
11,Cc1noc(C)c1NC(=O)Nc1cccc2c1O[C@H](CN(C)Cc1ccc(Oc3ccccc3)cc1)[C@H](C)CN([C@@H](C)CO)C2=O,9.38 µM
12,O=C(C[C@H]1CC[C@H]2[C@@H](COC[C@@H](O)CN2C(=O)Nc2ccc(Cl)c(Cl)c2)O1)NCc1ccccc1,3.72 µM
13,C[C@H]1CN([C@@H](C)CO)S(=O)(=O)c2ccc(C#Cc3cccc(F)c3)cc2O[C@H]1CN(C)C,24.8 µM
14,CO[C@@H](CN(C)C(=O)C1CC1)[C@@H](C)CN(C(=O)Nc1ccc(C(F)(F)F)cc1)[C@H](C)CO,14.7 µM
15,CCNC(=O)C[C@@H]1CC[C@@H]2[C@H](COC[C@@H](O)CN2C(=O)Nc2ccc(C(F)(F)F)cc2)O1,13.6 µM
16,CCNC(=O)C[C@H]1CC[C@H]2[C@@H](COC[C@@H](O)CN2C(=O)Nc2ccc(C(F)(F)F)cc2)O1,2.77 µM
17,O=C(C[C@H]1CC[C@@H]2[C@H](COC[C@@H](O)CN2C(=O)Nc2ccc(Cl)c(Cl)c2)O1)NC1CCC1,8.68 µM
18,C[C@@H]1CCCCO[C@H](CN(C)C(=O)Nc2ccc(C(F)(F)F)cc2)[C@H](C)CN([C@@H](C)CO)C(=O)c2cc(N(C)C)ccc2O1,> 60 µM (inactive)
19,CCCN(C)C[C@@H]1OCCCC[C@H](C)Oc2ccc(NC(=O)Nc3ccc(C(F)(F)F)cc3)cc2C(=O)N([C@H](C)CO)C[C@@H]1C,4.61 µM
20,O=C(C[C@H]1CC[C@H]2[C@@H](COC[C@H](O)CN2S(=O)(=O)c2ccccc2)O1)NCC1CCCCC1,13.5 µM
21,O=C(C[C@H]1CC[C@H]2[C@@H](COC[C@@H](O)CN2C(=O)Nc2ccc(C(F)(F)F)cc2)O1)NCC1CC1,1.18 µM
22,O=C(C[C@H]1CC[C@H]2[C@@H](COC[C@@H](O)CN2C(=O)Nc2cc(Cl)cc(Cl)c2)O1)NCC1CC1,10.9 µM
23,C[C@H]1CN([C@@H](C)CO)S(=O)(=O)c2ccc(C#CC3CCCC3)cc2O[C@@H]1CN(C)Cc1cccnc1,> 60 µM (inactive)
24,N#C[C@H]1[C@@H](c2ccc(C#Cc3cccc(F)c3)cc2)[C@H](CO)N1C(=O)C1CCC1,26.4 µM

row,Structure (SMILES),AC50
1,C=C1CC(c2ccc(-c3ccccc3)cc2)OC1=O (configuration not stated),13.7 µM
2,C[C@@H]1CN([C@H](C)CO)S(=O)(=O)c2ccc(/C=C/c3ccccc3)cc2O[C@H]1CN(C)Cc1ccc(C(=O)O)cc1,< 0.5 µM
3,CO[C@@H]1CN(C)C(=O)c2ccc(NC(=O)C3CCOCC3)cc2OC[C@@H](C)N(C(=O)Nc2ccc(C(F)(F)F)cc2)C[C@H]1C,16.1 µM
4,CO[C@@H](CN(C)Cc1cc(F)ccc1F)[C@H](C)CN(C(=O)Nc1ccc(C(F)(F)F)cc1)[C@H](C)CO,5.25 µM
5,C[C@H]1CN([C@@H](C)CO)C(=O)c2cccc(NC(=O)Nc3ccc(C(F)(F)F)cc3)c2O[C@@H]1CN(C)C(=O)Nc1ccccc1,32.2 µM
6,O=C(C[C@@H]1CC[C@H]2[C@@H](COC[C@@H](O)CN2C(=O)Nc2cc(Cl)cc(Cl)c2)O1)N1CCCCC1,6.58 µM
7,CNC(=O)C[C@H]1CC[C@H]2[C@@H](COC[C@H](O)CN2C(=O)Nc2ccc(Cl)c(Cl)c2)O1,< 1.95 µM
8,COc1ccccc1C#Cc1ccc([C@H]2[C@@H](C#N)N(C(=O)C3CCCCC3)[C@H]2CO)cc1,30 µM
9,CNC(=O)C[C@H]1CC[C@@H]2[C@H](COC[C@H](O)CN2C(=O)Nc2ccc(Cl)c(Cl)c2)O1,4.12 µM
10,CO[C@H]1CN(C)C(=O)c2cc(NC(C)=O)ccc2OC[C@@H](C)N(CCc2ccccc2)C[C@H]1C,> 60 µM (inactive)
11,CO[C@H]1CN(C)C(=O)c2ccc(NC(=O)Nc3ccc(Cl)c(Cl)c3)cc2OC[C@H](C)NC[C@H]1C,9.83 µM
12,O=C(NCC[C@@H]1CC[C@H](NC(=O)c2cccnc2)[C@H](CO)O1)Nc1ccc(C(F)(F)F)cc1,3.01 µM
13,CO[C@H]1CN(C)C(=O)c2cc(NC(=O)Nc3ccc(Cl)c(Cl)c3)ccc2OC[C@@H](C)NC[C@@H]1C,4.39 µM
14,NC(=O)[C@@H]1[C@H]2C(=O)O[C@H](c3ccccc3)[C@H](c3ccccc3)N2[C@H](c2ccccc2OCCO)[C@@]12C(=O)Nc1ccccc12,32.8 µM
15,O=C(C[C@@H]1CC[C@H]2[C@@H](COC[C@H](O)CN2C(=O)Nc2ccc(Cl)c(Cl)c2)O1)NCc1ccncc1,3.77 µM
16,O=C(C[C@@H]1CC[C@H]2[C@@H](COC[C@@H](O)CN2C(=O)Nc2ccc(Cl)c(Cl)c2)O1)NCc1ccccc1,1.6 µM
17,COc1ccccc1S(=O)(=O)N(C)C[C@H]1OCc2ccccc2-c2c(n(C)c3ccccc23)C(=O)N([C@H](C)CO)C[C@@H]1C,> 60 µM (inactive)
18,COc1ccccc1-c1ccc2c(c1)O[C@H](CN(C)C(=O)c1ccccc1)[C@H](C)CN([C@H](C)CO)S2(=O)=O,> 60 µM (inactive)
19,O=C(C[C@@H]1CC[C@H]2[C@@H](COC[C@@H](O)CN2C(=O)Nc2ccc(Cl)c(Cl)c2)O1)NCc1ccc(Cl)c(Cl)c1,< 0.5 µM
20,C[C@H](CO)N1C[C@H](C)[C@@H](CN(C)CC2CCCCC2)OCCCC[C@H](C)Oc2ccc(NC(=O)Nc3ccc(C(F)(F)F)cc3)cc2C1=O,13.6 µM
21,C[C@@H]1CCCCO[C@@H](CN(C)CC2CCCCC2)[C@@H](C)CN([C@@H](C)CO)C(=O)c2cc(NC(=O)Nc3ccc(C(F)(F)F)cc3)ccc2O1,10.7 µM
22,COc1ccc(C#Cc2cnc3c(c2)C(=O)N([C@@H](C)CO)C[C@@H](C)[C@H](CN(C)CC2CCCC2)O3)cc1,13.1 µM
23,C/C=C/c1ccc2c(c1)O[C@H](CN(C)C(=O)c1ccc(F)cc1)[C@H](C)CN([C@H](C)CO)S2(=O)=O,> 60 µM (inactive)
24,COc1ccc(CN(C)C[C@H]2OCCCC[C@@H](C)Oc3ccc(NC(=O)Nc4cccc5ccccc45)cc3C(=O)N([C@@H](C)CO)C[C@@H]2C)cc1,27.4 µM
